US6921772B2, “Methods and compositions for the treatment of chronic lymphocytic leukemia” (Salmedix, Inc., priority 1998, dated 2005)

Experiments:
[1] = test system: patient with B-cell CLL; test: In vivo administration of NSAIDs to a B-cell CLL patient: blood cell counts
[2] = test system: isolated mononuclear cells from the peripheral blood of the patient; test: FITC annexin / propidium iodide flow cytometry of the patient's isolated mononuclear cells after etodolac; assay type: in vivo, human; settings: baseline and daily for three days after administration, as lymphocyte count dropped
Description: To examine the possibility that a metabolite of etodolac or a serum factor may be necessary to achieve the clinical effect, the in vivo percentages of viable, apoptotic and late apoptotic or necrotic cells of isolated mononuclear cells were measured by flow cytometry using FITC annexin and propridium iodide assay. During early apoptosis and preceding DNA fragmentation, phosphatydylserine becomes exposed and bond by annexin V. Later in apoptosis and in cell necrosis, cells also become permeable to propidium iodide. FITC labeled […] and propidium iodide are easily detected by flow cytometry. Mononuclear cells were isolated from the peripheral blood of the patient by differential centrifugation on ficoll-Hypaque at baseline and then daily for three additional days after administration of etodolac. […] However, the percentage of viable cells increased and the percentage of late apoptotic or necrotic cells decreased. […] To examine the possibility that etodolac might enhance the clearance of leukemic lymphocytes by enhancing phagocytosis by macrophages, TAMRA stained isolated mononuclear cells from the patient were incubated with normal human adherent mononuclear cells in the presence of naproxen or etodolac in vitro. After an overnight incubation, the adherent cells were isolated and analyzed by flow cytometry for uptake of TAMRA stained cells from the patient. No increase in the uptake of the stained leukemic mononuclear cells by the normal adherent cells could be detected for etodolac compared to naproxen. To test the possibility that a metabolite of etodolac could be responsible for the effect, serum from the patient was collected free of drug, after receiving naproxen 375 mg bid for two days and after receiving etodolac 400 mg bid for two days, and tested in the above manner.

[3] = test system: normal human adherent mononuclear cells; test: Uptake of TAMRA stained patient mononuclear cells by normal adherent mononuclear cells (phagocytosis), flow cytometry; assay type: cell-based
Description: To examine the possibility that a metabolite of etodolac or a serum factor may be necessary to achieve the clinical effect, the in vivo percentages of viable, apoptotic and late apoptotic or necrotic cells of isolated mononuclear cells were measured by flow cytometry using FITC annexin and propridium iodide assay. During early apoptosis and preceding DNA fragmentation, phosphatydylserine becomes exposed and bond by annexin V. Later in apoptosis and in cell necrosis, cells also become permeable to propidium iodide. FITC labeled […] and propidium iodide are easily detected by flow cytometry. Mononuclear cells were isolated from the peripheral blood of the patient by differential centrifugation on ficoll-Hypaque at baseline and then daily for three additional days after administration of etodolac. […] However, the percentage of viable cells increased and the percentage of late apoptotic or necrotic cells decreased. […] After an overnight incubation, the adherent cells were isolated and analyzed by flow cytometry for uptake of TAMRA stained cells from the patient. No increase in the uptake of the stained leukemic mononuclear cells by the normal adherent cells could be detected for etodolac compared to naproxen. […]

[4] = B-cell CLL patient, count after NSAID course, etodolac 300 mg BID, mean +/- SD of 3 experiments

Row | SMILES | effect on lymphocyte count of the patient (in words) ([1]; summary of Table 1) | effect on white blood cell count of the patient (in words) ([1]; summary of Table 1) | further results
1 | COc1ccc2cc(CCC(C)=O)ccc2c1 [Nabumetone, nabumetone] | relatively little impact | relatively little impact | 
2 | CCc1cccc2c3c([nH]c12)C(CC)(CC(=O)O)OCC3 (racemic) [Etodolac, 1,8-diethyl-1,3,4,9-tetrahydro[3,4-b]-indole-1-acetic acid] | substantial reductions | substantial reductions | percentage of apoptotic cells [2]: remained the same; percentage of late apoptotic or necrotic cells [2]: decreased; percentage of viable cells [2]: increased; uptake of stained leukemic mononuclear cells by normal adherent cells ([3]; drug present in vitro, overnight incubation, compared to naproxen): No increase; phagocytosis of lymphocytes with patient serum ([3]; serum collected after etodolac 400 mg bid for two days, compared with drug-free serum and serum after naproxen 375 mg bid): No enhancement; Lymphocyte Ct. x E-3 [1, 4]: 20.68 x E-3; Neutrophil Count x E-3 [1, 4]: 3.58 x E-3; WBC Count x E-3 [1, 4]: 25.27 x E-3; platelet count (in words) ([1]; Oct. 28, 1997, after 300 mg BID Oct. 25-27, 1997): normal; lymphocyte count ([1]; Oct. 28, 1997, after 300 mg BID Oct. 25-27, 1997, count before treatment 27.44×E3): 6.70 ×E3; white blood cell count ([1]; Oct. 28, 1997, after 300 mg BID Oct. 25-27, 1997, count before treatment 34.3×E3): 13.40 ×E3; effect on platelet count (in words) ([1]; summary of Table 1): increased significantly
3 | COc1ccc2cc([C@H](C)C(=O)O)ccc2c1 [Naproxen, naproxen] | relatively little impact | relatively little impact | 
4 | O=C(O)Cc1ccccc1Nc1c(Cl)cccc1Cl [Diclofenac, diclofenac] | relatively little impact | relatively little impact | 
5 | CC(C)Cc1ccc(C(C)C(=O)O)cc1 (stereo not shown) [Ibuprofen, ibuprofen] | relatively little impact |  | 
6 | O=C(O)CCc1nc(-c2ccccc2)c(-c2ccccc2)o1 [Oxaprozin, oxaprozin] | relatively little impact | relatively little impact | 
7 | CN1C(C(=O)Nc2ccccn2)=C(O)c2ccccc2S1(=O)=O [Piroxicam, piroxicam] | relatively little impact | relatively little impact | 
8 | COc1ccc2c(c1)c(CC(=O)O)c(C)n2C(=O)c1ccc(Cl)cc1 [Indomethacin, indomethacin] | relatively little impact | relatively little impact | 
9 | Cc1ccc(C(=O)c2ccc(CC(=O)O)n2C)cc1 [Tolmetin, tolmetin] | relatively little impact | relatively little impact | 
10 | CC1=C(CC(=O)O)c2cc(F)ccc2/C1=C\c1ccc([S+](C)[O-])cc1 (stereo not shown) [Sulindac, sulindac] | relatively little impact | relatively little impact | 
